According to ChEMBL document CHEMBL4342505, “Achieving In Vivo Target Depletion through the Discovery and Optimization of Benzimidazolone BCL6 Degraders” (J Med Chem, 2020):
In brackets after ≈: the same amount, converted by molar mass. Activity calls are given as the source filed them. The calls are words filed in the database; no cut-off is given here.

Key:
[1] = molecular target: T1, B-cell lymphoma 6 protein (Homo sapiens, UniProt P41182)
Description: Induction of BCL6 degradation in human SUDHL-4 cells incubated for 2 hrs by immunofluorescence analysis

BCL-6/NCOR2 = BCL-6/NCOR2 (Homo sapiens, UniProt P41182)
Description: Inhibition of recombinant human Nanoluc-tagged BCL6/Halo-tagged SMRT transfected in human HEK293T cells assessed as reduction in BCL6/SMRT interaction incubated for 6 hrs by NANOBRET assay

[2] = Kinetic solubility in HEPES buffer containing 5% DMSO at pH 8 incubated for 20 hrs by NMR analysis; type: physicochemical; settings: read-out: Kinetic_solubility
[3] = Metabolic stability in CD-1 mouse liver microsomes assessed as intrinsic clearance at 1 uM measured upt0 30 mins by LC-MS/MS analysis; type: ADME, Microsome; settings: 0.5 h
[4] = molecular target: T1, B-cell lymphoma 6 protein; remark: listed apart in the source
Description: Inhibition of recombinant His-tagged human BCL6 expressed in Escherichia coli BL21 AI cell incubated for 2 hrs by TR-FRET assay

[5] = Lipophilicity, log D of compound at pH 7.4; type: physicochemical; settings: buffer
[6] = Kinetic solubility in PBS buffer containing 1% DMSO at pH 7.4 incubated for 2 hrs by HPLC analysis; type: physicochemical; settings: read-out: Kinetic_solubility
OCI-Ly3 = test: Antiproliferative activity agianst human OCI-LY3 cells assessed as growth inhibition incubated for 14 days by CellTiter Glo reagent based assay
OCI-Ly1 = test: Antiproliferative activity agianst human OCI-LY1 cells assessed as growth inhibition incubated for 14 days by CellTiter Glo reagent based assay
SUD4 = test: Antiproliferative activity agianst human SUDHL4 cells assessed as growth inhibition incubated for 14 days by CellTiter Glo reagent based assay; type: functional; settings: SU-DHL-4, […]
[7] = Permeability of compound by PAMPA assay; type: ADME
[8] = molecular target: T1, B-cell lymphoma 6 protein; test: Induction of BCL6 degradation in human OCI-LY1 cells incubated for 4 hrs by Western blot analysis; type: cell-based
[9] = molecular target: T1, B-cell lymphoma 6 protein; test: Induction of BCL6 degradation in human SUDHL-4 cells incubated for 4 hrs by Western blot analysis; type: cell-based
[10] = Protein binding in SCID mouse plasma assessed as unbound fraction; type: ADME, cell-free
[11] = AUC (0 to 10 hrs) in SCID mouse at 15 mg/kg, po measured upto 10 hrs by LC/MS-MS analysis; type: ADME, organism-based; set-up: dose 15 mg/kg, time < 10 hr, route oral; settings: in vivo
[12] = AUC (0 to 10 hrs) in SCID mouse at 5 mg/kg, po measured upto 10 hrs by LC/MS-MS analysis; type: ADME, organism-based; set-up: time < 10 hr, dose 5 mg/kg, route oral; settings: in vivo
[13] = Plasma concentration in SCID mouse; type: ADME, cell-free
in vivo [14] = settings: SCID, mouse, po, 50 mg/kg
in vivo [15] = settings: SCID, mouse, po, 5 mg/kg
in vivo [16] = settings: SCID, mouse, po, 15 mg/kg
[17] = Cmax in SCID mouse at 15 mg/kg, po measured upto 24 hrs by LC/MS-MS analysis; type: ADME, organism-based; set-up: dose 15 mg/kg, route oral; settings: in vivo
[18] = AUC (0 to 10) hrs in SCID mouse at 50 mg/kg, po measured upto 10 hrs by LC/MS-MS analysis; type: ADME, organism-based; set-up: dose 50 mg/kg, time < 10 hr, route oral; settings: in vivo
Mus musculus [19] = test: In vivo inhibition of BCL6 in SCID mouse xenografted with human OCI-LY1 cells assessed as reduction in BCL6 level at 15 mg/kg, po measured upto 10 hrs by Western blot analysis; type: functional, organism-based
Mus musculus [20] = test: In vivo inhibition of BCL6 in SCID mouse xenografted with human OCI-LY1 cells assessed as reduction in BCL6 level at 15 mg/kg, po measured at 12 and 16 hrs by Western blot analysis; type: functional, organism-based
[21] = Toxicity in SCID mouse xenografted with human OCI-LY1 cells assessed as adverse effect at 15 mg/kg, po observed for 24 hrs; type: organism-based; settings: in vivo
[22] = Cmax in SCID mouse at 5 mg/kg, po measured upto 24 hrs by LC/MS-MS analysis; type: ADME, organism-based; set-up: dose 5 mg/kg, route oral; settings: in vivo
[23] = Cmax in SCID mouse at 50 mg/kg, po measured upto 24 hrs by LC/MS-MS analysis; type: ADME, organism-based; set-up: dose 50 mg/kg, route oral; settings: in vivo
[24] = Drug level in SCID mouse blood; type: ADME, tissue-based; settings: read-out: Ct
[25] = molecular target: T1, B-cell lymphoma 6 protein; settings: oci-ly1
Description: Induction of BCL6 degradation in human OCI-LY1 cells incubated for 2 hrs by MSD electrochemiluminescent immunoassay

[26] = molecular target: T1, B-cell lymphoma 6 protein; remark: listed apart in the source
Description: Induction of BCL6 degradation in human KARPAS422 cells incubated for 2 hrs by MSD electrochemiluminescent immunoassay

Structure (SMILES) | DC50 [1] [nM] | IC50 (BCL-6/NCOR2) [nM] | solubility kinetic at 20 h [2] [µM] | CLH [3] [µL/min/mg] | IC50 [4] [nM] | logD [5] | solubility kinetic at 2 h [6] [µM] | other results
CC1CCCN(c2ncc(Cl)c(Nc3ccc4c(c3)n(CCC(C)(C)O)c(=O)n4C)n2)C1 (stereo not drawn) | 520 | 13000 | 44 (≈ 20.2 µg/mL) | 2210 | 640 | 4.2 | – | –
Cn1c(=O)n(CCC(C)(C)O)c2cc(Nc3nc(N4CCCC(CO)C4)ncc3Cl)ccc21 (stereo not drawn) | 450 | – | 442 (≈ 210 µg/mL) | 370 | 130 | 2.1 | – | –
Cn1c(=O)n(CCC(C)(C)O)c2cc(Nc3ccnc(Cl)c3C#N)ccc21 | – | – | < 30 | – | – | – | 25 (≈ 9.65 µg/mL) | –
Cn1c(=O)n(C)c2cc(Nc3ccnc(Cl)c3C#N)ccc21 | – | – | < 30 | – | – | – | 16 (≈ 5.02 µg/mL) | –
Cn1c(=O)n(CCC(C)(C)O)c2cc(Nc3nc(N4CCC(F)(F)C(CO)C4)ncc3Cl)ccc21 (stereo not drawn) | – | – | 294 (≈ 150 µg/mL) | – | – | 2.5 | – | GI50 (OCI-Ly3): 2900 nM; GI50 (OCI-Ly1): 500 nM; GI50 (SUD4): 410 nM
COCC1CN(c2ncc(Cl)c(Nc3ccc4c(c3)n(CCC(C)(C)O)c(=O)n4C)n2)CCC1(F)F (stereo not drawn) | 440 | – | 72 (≈ 37.8 µg/mL) | > 1000 | – | 3.5 | – | –
Cn1c(=O)n(CCC(C)(C)O)c2cc(Nc3nc(N4CCCC(C(F)(F)F)C4)ncc3Cl)ccc21 (stereo not drawn) | 750 | – | < 30 | 630 | 400 | 4.2 | – | –
C[C@@H]1CN(c2ncc(Cl)c(Nc3ccc4c(c3)n(CCC(C)(C)O)c(=O)n4C)n2)C[C@H](C)N1C | > 10000 | 1550 | 343 (≈ 167 µg/mL) | – | 190 | – | – | –
Cn1c(=O)n(CCC(C)(C)O)c2cc(Nc3nc(-n4cccn4)ncc3Cl)ccc21 | > 10000 | 5900 | 146 (≈ 62.5 µg/mL) | – | 710 | – | – | –
C[C@@H]1C[C@H](C)CN(c2ncc(Cl)c(Nc3ccc4c(c3)n(CCC(C)(C)O)c(=O)n4C)n2)C1 | – | – | < 30 | 2440 | – | 4.7 | 6 (≈ 2.84 µg/mL) | GI50 (OCI-Ly3): 3100 nM; permeability [7]: 36 ×10⁻⁶ cm/s; Activity [8]: Dose-dependent effect; GI50 (OCI-Ly1): 280 nM; GI50 (SUD4): 350 nM; Activity [9]: Dose-dependent effect
C[C@@H]1CN(c2ncc(Cl)c(Nc3ccc4c(c3)n(CCC(C)(C)O)c(=O)n4C)n2)C[C@H](C)O1 | > 10000 | 1760 | < 30 | 104 | 150 | – | 95 (≈ 45.1 µg/mL) | –
Cc1cc(C)n(-c2cc(Nc3ccc4c(c3)n(CCC(C)(C)O)c(=O)n4C)c(Cl)cn2)n1 | > 10000 | 4600 | 135 (≈ 61.4 µg/mL) | – | 790 | – | – | –
C[C@@H]1CN(c2ncc(Cl)c(Nc3ccc4c(c3)n(CCC(C)(C)O)c(=O)n4C)n2)C[C@H](C)C1(F)F | – | – | 11 (≈ 5.6 µg/mL) | 78 | – | 4.3 | 8 (≈ 4.07 µg/mL) | fraction unbound [10]: 0.0007; AUC(0-t) at 10 h [11]: 48.2 to 49.3 µM·h; GI50 (OCI-Ly3): 1600 nM; AUC(0-t) at 10 h [12]: 11.6 to 13.1 µM·h; concentration [13]: 1500 nM; Tmax at 24 h (in vivo [14]): 2 to 6 h; Tmax at 24 h (in vivo [15]): 0.5 to 1 h; Tmax at 24 h (in vivo [16]): 0.5 to 2 h; Cmax [17]: 6680 to 6930 nM; AUC at 10 h [18]: 47.4 to 56.3 µM·h; inhibition (Mus musculus [19]): Active; inhibition (Mus musculus [20]): inactive; Activity [21]: Non-Toxic; GI50 (OCI-Ly1): 35 nM; Cmax [22]: 1870 to 2040 nM; Cmax [23]: 5320 to 6210 nM; concentration [24]: 2800 nM; GI50 (SUD4): 92 nM
Cc1cc(C)n(-c2ncc(Cl)c(Nc3ccc4c(c3)n(CCC(C)(C)O)c(=O)n4C)n2)n1 | > 10000 | 1800 | 404 (≈ 184 µg/mL) | – | 260 | – | – | –
Cn1c(=O)n(CCC(C)(C)O)c2cc(Nc3nc(N4CCC(F)(F)CC4)ncc3Cl)ccc21 | – | – | 66 (≈ 31.7 µg/mL) | 36 | 310 | 3.4 | – | DC50 [25]: 180 nM; GI50 (OCI-Ly3): 2600 nM; GI50 (OCI-Ly1): 500 nM; DC50 [26]: 290 nM
CCC(C#N)Cn1c(=O)n(C)c2ccc(Nc3ccnc(Cl)c3C#N)cc21 (stereo not drawn) | – | – | < 30 | – | – | – | 9.2 (≈ 3.5 µg/mL) | –
CC1CN(c2ncc(Cl)c(Nc3ccc4c(c3)n(CCC(C)(C)O)c(=O)n4C)n2)CCC1(F)F (stereo not drawn) | 180 | – | 24 (≈ 11.9 µg/mL) | 66 | 330 | 3.9 | – | –
